Data reported in ChEMBL document CHEMBL1144455, “A small molecule-kinase interaction map for clinical kinase inhibitors” (Nat Biotechnol, 2005).

Experiments:
[1] = biological target: Protein-tyrosine kinase 6 (Homo sapiens, UniProt Q13882)
[2] = biological target: T1, Mitogen-activated protein kinase 12 (Homo sapiens, UniProt P53778)
T1 sequence (P53778 whole entry): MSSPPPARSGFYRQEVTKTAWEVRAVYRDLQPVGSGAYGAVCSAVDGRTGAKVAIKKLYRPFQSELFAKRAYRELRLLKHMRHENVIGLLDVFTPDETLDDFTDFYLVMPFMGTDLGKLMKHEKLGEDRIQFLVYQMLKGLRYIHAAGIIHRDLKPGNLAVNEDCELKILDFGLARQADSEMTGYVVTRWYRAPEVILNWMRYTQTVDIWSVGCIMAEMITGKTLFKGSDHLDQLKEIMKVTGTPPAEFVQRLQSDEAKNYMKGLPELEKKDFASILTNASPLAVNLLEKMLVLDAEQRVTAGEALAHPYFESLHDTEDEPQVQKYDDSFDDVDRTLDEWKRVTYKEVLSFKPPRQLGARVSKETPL

Activated CDC42 kinase 1 = Activated CDC42 kinase 1 (Homo sapiens, UniProt Q07912)
[3] = biological target: Ribosomal protein S6 kinase alpha-2 (Homo sapiens, UniProt Q15349)
Chain of Ribosomal protein S6 kinase alpha-2 (Q15349 whole entry): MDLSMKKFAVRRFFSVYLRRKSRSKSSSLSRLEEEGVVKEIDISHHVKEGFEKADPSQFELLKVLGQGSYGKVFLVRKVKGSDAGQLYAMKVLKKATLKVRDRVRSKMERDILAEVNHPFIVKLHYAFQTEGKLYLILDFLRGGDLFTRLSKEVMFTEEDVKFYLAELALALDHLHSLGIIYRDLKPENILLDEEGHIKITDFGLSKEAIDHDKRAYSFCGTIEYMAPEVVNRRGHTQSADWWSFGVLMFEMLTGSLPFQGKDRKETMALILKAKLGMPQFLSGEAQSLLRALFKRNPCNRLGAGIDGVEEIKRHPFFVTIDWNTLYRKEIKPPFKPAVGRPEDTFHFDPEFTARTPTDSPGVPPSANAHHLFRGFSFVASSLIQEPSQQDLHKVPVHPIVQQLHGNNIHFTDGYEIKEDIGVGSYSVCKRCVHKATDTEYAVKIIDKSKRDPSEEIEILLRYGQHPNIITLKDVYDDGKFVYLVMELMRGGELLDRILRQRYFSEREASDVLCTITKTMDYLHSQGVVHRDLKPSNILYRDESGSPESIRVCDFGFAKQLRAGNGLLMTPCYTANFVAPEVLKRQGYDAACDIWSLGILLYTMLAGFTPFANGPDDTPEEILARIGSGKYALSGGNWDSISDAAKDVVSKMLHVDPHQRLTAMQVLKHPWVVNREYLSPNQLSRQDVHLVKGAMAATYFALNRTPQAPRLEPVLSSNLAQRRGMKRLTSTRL

[4] = biological target: Tyrosine-protein kinase Lyn (Homo sapiens, UniProt P07948)
Chain of Tyrosine-protein kinase Lyn (P07948 whole entry): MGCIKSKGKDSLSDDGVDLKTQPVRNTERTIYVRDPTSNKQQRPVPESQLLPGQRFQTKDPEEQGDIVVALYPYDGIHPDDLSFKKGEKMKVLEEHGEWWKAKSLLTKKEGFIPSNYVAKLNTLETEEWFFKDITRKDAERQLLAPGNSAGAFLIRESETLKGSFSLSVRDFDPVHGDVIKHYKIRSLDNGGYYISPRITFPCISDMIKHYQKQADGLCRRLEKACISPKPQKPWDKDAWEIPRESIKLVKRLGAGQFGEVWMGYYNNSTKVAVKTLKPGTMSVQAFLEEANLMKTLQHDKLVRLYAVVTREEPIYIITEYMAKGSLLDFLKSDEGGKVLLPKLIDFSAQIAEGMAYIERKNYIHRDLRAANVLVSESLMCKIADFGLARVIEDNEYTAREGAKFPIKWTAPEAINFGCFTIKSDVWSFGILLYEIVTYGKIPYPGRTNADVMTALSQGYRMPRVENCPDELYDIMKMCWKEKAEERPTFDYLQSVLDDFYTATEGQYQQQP

[5] = biological target: Serine/threonine-protein kinase PAK 1 (Homo sapiens, UniProt Q13153)
Chain of Serine/threonine-protein kinase PAK 1 (Q13153 whole entry): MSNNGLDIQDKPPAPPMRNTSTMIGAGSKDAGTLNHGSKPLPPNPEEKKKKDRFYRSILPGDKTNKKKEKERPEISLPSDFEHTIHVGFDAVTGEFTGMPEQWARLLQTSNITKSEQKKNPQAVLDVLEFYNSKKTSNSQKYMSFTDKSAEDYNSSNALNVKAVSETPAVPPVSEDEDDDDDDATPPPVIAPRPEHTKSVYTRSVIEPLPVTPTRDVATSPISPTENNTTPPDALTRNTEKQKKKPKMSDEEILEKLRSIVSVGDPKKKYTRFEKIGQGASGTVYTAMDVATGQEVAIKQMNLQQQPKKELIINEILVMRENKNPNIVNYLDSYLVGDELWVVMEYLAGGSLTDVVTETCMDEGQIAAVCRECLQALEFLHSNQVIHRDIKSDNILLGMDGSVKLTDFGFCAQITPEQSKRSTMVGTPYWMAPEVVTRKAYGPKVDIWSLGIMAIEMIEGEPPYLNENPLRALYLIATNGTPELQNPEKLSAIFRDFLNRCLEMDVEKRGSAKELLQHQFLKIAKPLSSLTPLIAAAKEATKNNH

[6] = biological target: Tyrosine-protein kinase CSK (Homo sapiens, UniProt P41240)
Chain of Tyrosine-protein kinase CSK (P41240 whole entry): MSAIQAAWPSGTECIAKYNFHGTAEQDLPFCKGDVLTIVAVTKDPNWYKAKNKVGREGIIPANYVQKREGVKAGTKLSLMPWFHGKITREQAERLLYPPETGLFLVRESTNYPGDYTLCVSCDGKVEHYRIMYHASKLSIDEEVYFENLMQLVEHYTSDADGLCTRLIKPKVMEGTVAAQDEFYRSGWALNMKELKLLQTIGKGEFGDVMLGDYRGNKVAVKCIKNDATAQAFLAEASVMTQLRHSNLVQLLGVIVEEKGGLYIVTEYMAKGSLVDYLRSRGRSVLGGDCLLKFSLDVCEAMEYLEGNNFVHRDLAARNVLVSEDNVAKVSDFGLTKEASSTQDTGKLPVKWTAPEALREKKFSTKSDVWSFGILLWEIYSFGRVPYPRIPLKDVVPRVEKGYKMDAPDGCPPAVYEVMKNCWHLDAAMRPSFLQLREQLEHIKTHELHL

[7] = biological target: Serine/threonine-protein kinase 38-like (Homo sapiens, UniProt Q9Y2H1)
Chain of Serine/threonine-protein kinase 38-like (Q9Y2H1 whole entry): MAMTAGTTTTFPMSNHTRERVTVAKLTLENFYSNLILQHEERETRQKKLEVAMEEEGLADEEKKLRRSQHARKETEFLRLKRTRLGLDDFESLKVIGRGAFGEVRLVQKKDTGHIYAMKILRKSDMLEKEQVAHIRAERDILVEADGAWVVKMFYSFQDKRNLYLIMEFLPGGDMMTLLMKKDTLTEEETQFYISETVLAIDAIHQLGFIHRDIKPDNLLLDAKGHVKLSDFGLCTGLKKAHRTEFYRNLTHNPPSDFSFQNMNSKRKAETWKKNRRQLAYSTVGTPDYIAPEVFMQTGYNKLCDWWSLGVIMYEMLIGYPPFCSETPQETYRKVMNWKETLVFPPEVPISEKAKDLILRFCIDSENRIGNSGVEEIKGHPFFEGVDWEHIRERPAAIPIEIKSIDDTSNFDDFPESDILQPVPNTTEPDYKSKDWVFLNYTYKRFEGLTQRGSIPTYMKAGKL

[8] = biological target: T2, Serine/threonine-protein kinase 3 (Mus musculus, UniProt Q9JI10)
T2 sequence (Q9JI10 whole entry): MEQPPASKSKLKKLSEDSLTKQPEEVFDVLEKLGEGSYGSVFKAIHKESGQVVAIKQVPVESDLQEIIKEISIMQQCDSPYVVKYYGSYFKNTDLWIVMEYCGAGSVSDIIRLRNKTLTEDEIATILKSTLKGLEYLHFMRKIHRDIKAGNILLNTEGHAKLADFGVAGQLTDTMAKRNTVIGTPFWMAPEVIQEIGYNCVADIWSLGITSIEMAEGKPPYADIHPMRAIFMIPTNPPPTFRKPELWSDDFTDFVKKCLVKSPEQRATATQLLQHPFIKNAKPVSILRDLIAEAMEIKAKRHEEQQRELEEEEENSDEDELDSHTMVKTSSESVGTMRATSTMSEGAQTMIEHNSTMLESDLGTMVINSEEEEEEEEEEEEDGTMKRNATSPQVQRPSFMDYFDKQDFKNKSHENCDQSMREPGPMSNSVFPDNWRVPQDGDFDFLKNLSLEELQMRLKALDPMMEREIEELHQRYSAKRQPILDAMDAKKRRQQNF

Ephrin type-A receptor 3 = biological target: T3, Ephrin type-A receptor 3 (Homo sapiens, UniProt P29320)
T3 sequence (P29320 whole entry): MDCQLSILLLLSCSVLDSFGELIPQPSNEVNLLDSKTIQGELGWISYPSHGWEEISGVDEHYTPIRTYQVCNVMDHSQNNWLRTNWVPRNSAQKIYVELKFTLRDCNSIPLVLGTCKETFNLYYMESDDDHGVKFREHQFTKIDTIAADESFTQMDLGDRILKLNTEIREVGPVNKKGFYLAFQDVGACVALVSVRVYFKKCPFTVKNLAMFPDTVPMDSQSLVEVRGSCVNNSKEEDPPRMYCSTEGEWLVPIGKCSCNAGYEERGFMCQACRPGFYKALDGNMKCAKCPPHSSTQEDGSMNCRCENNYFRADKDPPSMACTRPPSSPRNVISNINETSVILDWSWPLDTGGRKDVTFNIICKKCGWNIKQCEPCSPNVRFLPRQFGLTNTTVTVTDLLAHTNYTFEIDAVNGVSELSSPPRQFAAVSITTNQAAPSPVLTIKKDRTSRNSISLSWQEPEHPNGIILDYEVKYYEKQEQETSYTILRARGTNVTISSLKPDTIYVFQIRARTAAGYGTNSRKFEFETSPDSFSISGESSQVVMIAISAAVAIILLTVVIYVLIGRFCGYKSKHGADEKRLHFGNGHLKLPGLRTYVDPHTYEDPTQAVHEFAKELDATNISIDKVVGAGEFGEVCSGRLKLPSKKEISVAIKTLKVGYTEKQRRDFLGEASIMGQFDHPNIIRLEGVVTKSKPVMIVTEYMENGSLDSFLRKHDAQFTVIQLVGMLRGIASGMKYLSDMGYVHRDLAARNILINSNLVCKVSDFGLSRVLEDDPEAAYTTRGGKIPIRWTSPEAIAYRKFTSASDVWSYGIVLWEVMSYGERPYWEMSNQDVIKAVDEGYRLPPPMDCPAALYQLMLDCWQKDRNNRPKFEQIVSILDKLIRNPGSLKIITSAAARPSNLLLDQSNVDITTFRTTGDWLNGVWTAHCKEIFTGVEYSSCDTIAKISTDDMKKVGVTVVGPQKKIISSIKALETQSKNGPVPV

[9] = biological target: Casein kinase I isoform gamma-1 (Homo sapiens, UniProt Q9HCP0)
Chain of Casein kinase I isoform gamma-1 (Q9HCP0 whole entry, canonical isoform): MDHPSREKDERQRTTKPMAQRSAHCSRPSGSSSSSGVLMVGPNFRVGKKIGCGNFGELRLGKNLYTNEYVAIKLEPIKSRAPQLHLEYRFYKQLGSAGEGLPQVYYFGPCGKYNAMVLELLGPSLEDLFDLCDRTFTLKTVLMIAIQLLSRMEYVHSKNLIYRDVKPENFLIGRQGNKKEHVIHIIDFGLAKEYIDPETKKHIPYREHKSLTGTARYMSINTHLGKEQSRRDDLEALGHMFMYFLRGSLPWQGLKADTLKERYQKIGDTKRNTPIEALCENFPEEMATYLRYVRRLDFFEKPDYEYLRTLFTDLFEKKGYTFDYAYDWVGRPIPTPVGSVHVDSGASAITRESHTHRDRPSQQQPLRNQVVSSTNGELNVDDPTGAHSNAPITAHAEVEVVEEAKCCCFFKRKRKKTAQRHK

Aurora kinase C = biological target: T4, Aurora kinase C (Homo sapiens, UniProt Q9UQB9)
T4 sequence (Q9UQB9 whole entry): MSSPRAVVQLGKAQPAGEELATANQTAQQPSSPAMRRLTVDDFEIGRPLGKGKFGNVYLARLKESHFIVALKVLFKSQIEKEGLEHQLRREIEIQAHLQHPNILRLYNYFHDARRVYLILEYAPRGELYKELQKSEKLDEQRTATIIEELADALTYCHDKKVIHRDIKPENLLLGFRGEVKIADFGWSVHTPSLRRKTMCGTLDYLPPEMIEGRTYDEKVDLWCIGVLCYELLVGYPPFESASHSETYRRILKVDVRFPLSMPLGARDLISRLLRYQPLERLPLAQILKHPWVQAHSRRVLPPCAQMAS

[10] = biological target: Dual specificity protein kinase CLK4 (Homo sapiens, UniProt Q9HAZ1)
Chain of Dual specificity protein kinase CLK4 (Q9HAZ1 whole entry): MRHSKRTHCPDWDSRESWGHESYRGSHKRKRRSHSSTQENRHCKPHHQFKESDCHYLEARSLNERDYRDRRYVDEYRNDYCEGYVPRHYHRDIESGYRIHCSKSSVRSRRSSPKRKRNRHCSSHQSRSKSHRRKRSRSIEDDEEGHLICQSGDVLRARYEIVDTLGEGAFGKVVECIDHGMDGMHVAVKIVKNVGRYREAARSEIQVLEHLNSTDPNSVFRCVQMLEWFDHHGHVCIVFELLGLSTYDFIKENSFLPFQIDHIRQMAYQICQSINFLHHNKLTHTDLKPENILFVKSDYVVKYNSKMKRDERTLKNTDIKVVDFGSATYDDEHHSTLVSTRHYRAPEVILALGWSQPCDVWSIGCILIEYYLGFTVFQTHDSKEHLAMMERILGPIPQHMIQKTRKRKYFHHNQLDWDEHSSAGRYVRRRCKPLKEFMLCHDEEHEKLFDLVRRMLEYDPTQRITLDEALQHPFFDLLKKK

[11] = biological target: Serine/threonine-protein kinase 16 (Homo sapiens, UniProt O75716)
Chain of Serine/threonine-protein kinase 16 (O75716 whole entry): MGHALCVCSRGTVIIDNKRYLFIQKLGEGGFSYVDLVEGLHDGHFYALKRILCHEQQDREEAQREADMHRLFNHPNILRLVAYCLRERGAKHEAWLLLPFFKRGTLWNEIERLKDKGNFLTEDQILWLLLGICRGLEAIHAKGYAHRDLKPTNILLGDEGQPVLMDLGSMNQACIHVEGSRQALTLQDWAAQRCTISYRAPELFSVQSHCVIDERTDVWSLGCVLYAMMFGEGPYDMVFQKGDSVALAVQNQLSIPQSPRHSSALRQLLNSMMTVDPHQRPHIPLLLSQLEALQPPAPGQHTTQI

Chain of Protein-tyrosine kinase 6 (Q13882 whole entry): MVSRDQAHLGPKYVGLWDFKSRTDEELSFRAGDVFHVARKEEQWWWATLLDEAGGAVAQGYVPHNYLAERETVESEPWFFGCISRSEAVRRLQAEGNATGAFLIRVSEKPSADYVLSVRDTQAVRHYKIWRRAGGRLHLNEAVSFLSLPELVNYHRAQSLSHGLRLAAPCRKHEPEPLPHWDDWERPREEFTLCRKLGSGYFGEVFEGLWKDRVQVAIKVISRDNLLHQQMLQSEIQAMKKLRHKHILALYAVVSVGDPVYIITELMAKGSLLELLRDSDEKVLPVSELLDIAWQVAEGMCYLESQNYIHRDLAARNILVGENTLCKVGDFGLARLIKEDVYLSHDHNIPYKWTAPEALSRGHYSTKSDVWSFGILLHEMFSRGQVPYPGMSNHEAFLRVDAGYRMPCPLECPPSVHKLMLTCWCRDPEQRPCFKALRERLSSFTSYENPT

Work on `Oc1ccc(-c2nc(-c3ccc(F)cc3)c(-c3ccncc3)[nH]2)cc1` [SB-202190] yielded a Kd [1] of 3 µM.
`C[S+]([O-])c1ccc(-c2nc(-c3ccc(F)cc3)c(-c3ccncc3)[nH]2)cc1` (stereo not drawn) [SB-203580] was tested, and the Kd [2] was 1700 nM.
In the case of `CCOc1cc2ncc(C#N)c(Nc3ccc(F)c(Cl)c3)c2cc1NC(=O)/C=C/CN(C)C` [PELITINIB], the Kd (Activated CDC42 kinase 1) is reported as 890 nM, the Kd [3] is reported as 8.1 µM and the Kd [4] is reported as 960 nM. It also gave a Kd [5] of 2100 nM, a Kd [6] of 2300 nM and a Kd [7] of 3100 nM. The Kd [8] was 1100 nM.
Work on `Oc1c2ccccc2c2c3c(cccc13)N=N2` [SP-600125] yielded a Kd [3] of 2.2 µM, a Kd (Ephrin type-A receptor 3) of 4 µM and a Kd [9] of 3.7 µM. For the same compound, the Kd (Aurora kinase C) was 5.3 µM, the Kd [7] was 2300 nM and the Kd [2] was 2400 nM. It also gave a Kd [10] of 260 nM, a Kd [8] of 220 nM and a Kd [11] of 510 nM.
